One assay concerns the target T1, rat FAAH (Rattus norvegicus, UniProt P97612).
T1 sequence (P97612 1-579): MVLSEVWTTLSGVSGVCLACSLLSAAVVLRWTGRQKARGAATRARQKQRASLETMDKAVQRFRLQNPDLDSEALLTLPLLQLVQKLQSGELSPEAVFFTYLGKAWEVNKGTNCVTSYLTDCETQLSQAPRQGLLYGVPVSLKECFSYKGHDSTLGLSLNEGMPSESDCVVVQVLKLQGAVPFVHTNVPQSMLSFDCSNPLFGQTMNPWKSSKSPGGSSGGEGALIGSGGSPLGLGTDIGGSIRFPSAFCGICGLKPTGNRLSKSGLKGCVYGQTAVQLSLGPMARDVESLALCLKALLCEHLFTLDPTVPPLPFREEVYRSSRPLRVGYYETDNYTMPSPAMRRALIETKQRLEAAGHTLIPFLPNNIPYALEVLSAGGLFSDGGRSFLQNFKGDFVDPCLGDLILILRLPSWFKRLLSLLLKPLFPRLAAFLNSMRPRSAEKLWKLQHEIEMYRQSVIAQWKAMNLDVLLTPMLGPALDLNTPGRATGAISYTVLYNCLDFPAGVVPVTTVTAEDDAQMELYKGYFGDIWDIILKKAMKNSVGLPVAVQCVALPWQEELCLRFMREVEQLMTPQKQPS
The assay can be described thus: Assay Method 2: FAAH assay, 3H-anandamide hydrolysis in homogenate of SK-N-MC cells transfected with rat FAAH. It is filed as biochemical. To be noted: average of results, > = solubility limit or highest concentration tested. Put shortly:
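Read-out is scintillation counting of [3H]-ethanolamine passing through activated charcoal, after 1 h at rt with 80 nM final [3H]-AEA. Enzyme source: lysate of G418-selected SK-N-MC clones expressing rat FAAH, homogenized in Tris/EDTA/glycerol/0.02% Triton buffer, pH 9.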

The target of a further assay is T2, FAAH (Homo sapiens, UniProt O00519).
T2 sequence (O00519 1-579): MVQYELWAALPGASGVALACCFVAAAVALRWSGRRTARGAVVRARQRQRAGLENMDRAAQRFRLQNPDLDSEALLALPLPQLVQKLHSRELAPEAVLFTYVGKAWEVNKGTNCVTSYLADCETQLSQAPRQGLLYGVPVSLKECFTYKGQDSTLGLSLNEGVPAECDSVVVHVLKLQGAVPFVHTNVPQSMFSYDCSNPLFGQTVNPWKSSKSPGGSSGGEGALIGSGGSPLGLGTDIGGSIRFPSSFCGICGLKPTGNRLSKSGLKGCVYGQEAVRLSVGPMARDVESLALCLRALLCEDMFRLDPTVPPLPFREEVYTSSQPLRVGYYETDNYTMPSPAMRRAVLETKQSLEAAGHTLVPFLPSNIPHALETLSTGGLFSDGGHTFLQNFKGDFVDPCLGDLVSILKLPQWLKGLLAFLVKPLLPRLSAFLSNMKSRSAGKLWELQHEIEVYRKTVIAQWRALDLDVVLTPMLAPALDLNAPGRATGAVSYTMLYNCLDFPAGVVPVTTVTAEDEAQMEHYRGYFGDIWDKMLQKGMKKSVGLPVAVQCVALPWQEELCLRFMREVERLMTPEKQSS
The assay is described as follows: Assay Method 1: FAAH assay, 3H-anandamide hydrolysis in homogenate of T84 cells or SK-N-MC cells transfected with human FAAH. To be noted: average of results, > = solubility limit or highest concentration tested. It is filed as biochemical. Put shortly:
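Hydrolysis of ^3H-anandamide (80 nM final, added last) was measured over 1 h at rt, using test compound with homogenate of T84 cells or human FAAH-transfected SK-N-MC cells. The homogenization buffer was 125 mM Tris, 1 mM EDTA, 0.02% Triton X-100, pH 9. Unbound labelled ethanolamine was passed through charcoal filters and scintillation-counted.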

Drawing on patent publication US20090062294A1, “HETEROARYL-SUBSTITUTED UREA MODULATORS OF FATTY ACID AMIDE HYDROLASE” (priority 2007, published 2009), this text covers IC50 for 27 molecules.

For orientation: IC50 means the concentration that inhibits the measured activity by half. With `O=C(Nc1noc2ccccc12)N1CCN(Cc2ccc3ccccc3n2)CC1` [Example 124, 4-Quinolin-2-ylmethyl-piperazine-1-carboxylic acid benzo[d]isoxazol-3-ylamide], the IC50 worked out at 200 nM at rat FAAH and 55 nM on FAAH.
Regarding `N#Cc1ccc(Oc2cccc(CN3CCN(C(=O)Nc4noc5ccccc45)CC3)c2)cc1` [Example 125, 4-[3-(4-Cyano-phenoxy)-benzyl]-piperazine-1-carboxylic acid benzo[d]isoxazol-3-ylamide], the IC50 turned out to be 12 nM against rat FAAH and 15 nM against FAAH.
On to `O=C(Nc1noc2ccccc12)N1CCN(Cc2cc3ccccc3o2)CC1` [Example 126, 4-Benzofuran-2-ylmethyl-piperazine-1-carboxylic acid benzo[d]isoxazol-3-ylamide], for which the IC50 at rat FAAH was 200 nM; against FAAH, 60 nM.
`O=C(Nc1noc2ccccc12)N1CCN(Cc2cccc(Oc3cccc(Cl)c3)c2)CC1` [Example 127, N-1,2-Benzisoxazol-3-yl-4-[3-(3-chlorophenoxy)benzyl]piperazine-1-carboxamide]: the IC50 against rat FAAH and against FAAH was 40 nM throughout.
With `N#Cc1ccc(Oc2cccc(CN3CCN(C(=O)Nc4noc5ccccc45)CC3)c2)cc1C(F)(F)F` [Example 128, N-1,2-Benzisoxazol-3-yl-4-{3-[4-cyano-3-(trifluoromethyl)phenoxy]benzyl}piperazine-1-carboxamide], the IC50 against rat FAAH was determined as 400 nM; against FAAH it was 230 nM.
In the same order, the values of `N#Cc1cccc(Oc2cccc(CN3CCN(C(=O)Nc4noc5ccccc45)CC3)c2)c1` [Example 129, N-1,2-Benzisoxazol-3-yl-4-[3-(3-cyanophenoxy)benzyl]piperazine-1-carboxamide] are 120 nM and 80 nM.
With `O=C(Nc1noc2ccccc12)N1CCN(Cc2cccc(Oc3ccc(SC(F)(F)F)cc3)c2)CC1` [Example 130, N-1,2-Benzisoxazol-3-yl-4-(3-{4-[(trifluoromethyl)sulfanyl]phenoxy}-benzyl)piperazine-1-carboxamide], the figures for the IC50 on rat FAAH and against FAAH were 4 nM and 20 nM, respectively.
In the case of `O=C(Nc1noc2ccccc12)N1CCN(Cc2cccc(Oc3ccc4c(c3)OC(F)(F)O4)c2)CC1` [Example 131, N-1,2-Benzisoxazol-3-yl-4-{3-[(2,2-difluoro-1,3-benzodioxol-5-yl)oxy]benzyl}piperazine-1-carboxamide], the IC50 against rat FAAH came to 4 nM; on FAAH, 7 nM.
The matching figures for `O=C(Nc1noc2ccccc12)N1CCN(Cc2cccc(Oc3ccc(S(=O)(=O)C(F)(F)F)cc3)c2)CC1` [Example 132, N-1,2-Benzisoxazol-3-yl-4-(3-{4-[(trifluoromethyl)sulfonyl]phenoxy}-benzyl)piperazine-1-carboxamide]: 5 nM and 23 nM.
Regarding `O=C(Nc1noc2ccccc12)N1CCN(Cc2cccc(C#Cc3ccccc3)c2)CC1` [Example 133, N-1,2-Benzisoxazol-3-yl-4-{[3-(phenylethynyl)phenyl]methyl}piperazine-1-carboxamide], the IC50 is 115 nM at rat FAAH and 24 nM on FAAH.
In the same order, the values of `O=C(Nc1ccon1)N1CCN(Cc2cccc(Oc3ccc(OC(F)(F)F)cc3)c2)CC1` [Example 134, N-Isoxazol-3-yl-4-{3-[4-(trifluoromethoxy)phenoxy]benzyl}piperazine-1-carboxamide] are 100 nM and 10 nM.
On to `O=C(Nc1ccon1)N1CCN(Cc2cccc(Oc3cccc(Cl)c3)c2)CC1` [Example 136, 4-[3-(3-Chlorophenoxy)benzyl]-N-isoxazol-3-ylpiperazine-1-carboxamide], for which the IC50 against rat FAAH turned out to be 1000 nM; against FAAH it was 55 nM.
For the molecule `O=C(Nc1ccon1)N1CCN(Cc2cccc(Oc3ccc(OCC(F)(F)F)cc3)c2)CC1` [Example 137, N-Isoxazol-3-yl-4-{3-[4-(2,2,2-trifluoroethoxy)phenoxy]benzyl}piperazine-1-carboxamide], the IC50 stood at 360 nM on rat FAAH and 60 nM against FAAH.
On to `O=C(Nc1ccon1)N1CCN(Cc2cc3ccccc3o2)CC1` [Example 138, 4-(1-Benzofuran-2-ylmethyl)-N-isoxazol-3-ylpiperazine-1-carboxamide], for which the IC50 against rat FAAH is > 10000 nM; on FAAH, 5000 nM.
As to `N#Cc1cccc(Oc2cccc(CN3CCN(C(=O)Nc4ccon4)CC3)c2)c1` [Example 139, 4-[3-(3-Cyanophenoxy)benzyl]-N-isoxazol-3-ylpiperazine-1-carboxamide], the values for the IC50 against rat FAAH and against FAAH were > 10000 nM and 860 nM, respectively.
In the same order, the values of `O=C(Nc1ccon1)N1CCN(Cc2cccc(Oc3ccccc3Cl)c2)CC1` [Example 140, 4-[3-(2-Chlorophenoxy)benzyl]-N-isoxazol-3-ylpiperazine-1-carboxamide] are 6000 nM and 700 nM.
In the same order, the values of `O=C(Nc1ccon1)N1CCN(Cc2cccc(Oc3ccc4c(c3)OC(F)(F)O4)c2)CC1` [Example 141, 4-{3-[(2,2-Difluoro-1,3-benzodioxol-5-yl)oxy]benzyl}-N-isoxazol-3-ylpiperazine-1-carboxamide] are 870 nM and 50 nM.
`O=C(Nc1ccon1)N1CCN(Cc2ccc3c(c2)OCO3)CC1` [Example 143, 4-(1,3-Benzodioxol-5-ylmethyl)-N-isoxazol-3-ylpiperazine-1-carboxamide]: the IC50 at rat FAAH and on FAAH was > 10000 nM in each case.
Turning to `O=C(Nc1ccon1)N1CCN(Cc2ccc3ccccc3c2)CC1` [Example 144, N-Isoxazol-3-yl-4-(naphthalen-2-ylmethyl)piperazine-1-carboxamide], the IC50 is 3000 nM against rat FAAH and 350 nM against FAAH.
The matching figures for `O=C(Nc1ccon1)N1CCN(Cc2cccc(Oc3ccc(Br)cc3)c2)CC1` [Example 145, 4-[3-(4-Bromophenoxy)benzyl]-N-isoxazol-3-ylpiperazine-1-carboxamide]: 430 nM and 16 nM.
The matching figures for `O=C(Nc1ccon1)N1CCN(Cc2ccc(Br)cc2)CC1` [Example 148, 4-(4-Bromo-benzyl)-piperazine-1-carboxylic acid isoxazol-3-ylamide]: > 10000 nM and 5000 nM.
In the same order, the values of `O=C(Nc1ccon1)N1CCN(Cc2cccc(Oc3ccc4ccccc4c3)c2)CC1` [Example 150, 4-[3-(Naphthalen-2-yloxy)-benzyl]-piperazine-1-carboxylic acid isoxazol-3-ylamide] are 1200 nM and 400 nM.
Consider `O=C(Nc1ccon1)N1CCN(Cc2ccc(Br)c(F)c2)CC1` [Example 151, 4-(4-Bromo-3-fluoro-benzyl)-piperazine-1-carboxylic acid isoxazol-3-ylamide], for which the IC50 against rat FAAH turned out to be 6000 nM; against FAAH, 3000 nM.
For `N#Cc1ccc(Oc2cccc(CN3CCN(C(=O)Nc4ccon4)CC3)c2)cc1` [Example 152, 4-[3-(4-Cyano-phenoxy)-benzyl]-piperazine-1-carboxylic acid isoxazol-3-ylamide], the IC50 against rat FAAH was 5000 nM; at FAAH, 330 nM.
Consider `O=C(Nc1ccon1)N1CCN(Cc2cccc(Oc3ccc(F)c(F)c3)c2)CC1` [Example 153, 4-[3-(3,4-Difluorophenoxy)benzyl]-N-isoxazol-3-ylpiperazine-1-carboxamide], for which the values for the IC50 at rat FAAH and on FAAH were 8000 nM and 460 nM, respectively.
As to `O=C(Nc1ccon1)N1CCN(Cc2cccc(Oc3ccc(SC(F)(F)F)cc3)c2)CC1` [Example 155, N-Isoxazol-3-yl-4-(3-{4-[(trifluoromethyl)sulfanyl]phenoxy}benzyl)-piperazine-1-carboxamide], the half-inhibitory concentration (IC50) against rat FAAH was determined as 270 nM; on FAAH it was 20 nM.
The matching figures for `O=C(Nc1ccon1)N1CCN(Cc2cccc(Oc3ccc(F)c(C(F)(F)F)c3)c2)CC1` [Example 156, 4-{3-[4-Fluoro-3-(trifluoromethyl)phenoxy]benzyl}-N-isoxazol-3-ylpiperazine-1-carboxamide]: 5000 nM and 43 nM.
